Molecular target: T1, angiotensin converting enzyme (Oryctolagus cuniculus, UniProt P12822)
T1 construct: Rabbit lung acetone powder was extracted with 10 volumes of 50 mM sodium borate buffer; from tissue; host or cells: rabbit lung (acetone powder, borate buffer extract, 40,000 x g supernatant)
T1 sequence (P12822 34-1310): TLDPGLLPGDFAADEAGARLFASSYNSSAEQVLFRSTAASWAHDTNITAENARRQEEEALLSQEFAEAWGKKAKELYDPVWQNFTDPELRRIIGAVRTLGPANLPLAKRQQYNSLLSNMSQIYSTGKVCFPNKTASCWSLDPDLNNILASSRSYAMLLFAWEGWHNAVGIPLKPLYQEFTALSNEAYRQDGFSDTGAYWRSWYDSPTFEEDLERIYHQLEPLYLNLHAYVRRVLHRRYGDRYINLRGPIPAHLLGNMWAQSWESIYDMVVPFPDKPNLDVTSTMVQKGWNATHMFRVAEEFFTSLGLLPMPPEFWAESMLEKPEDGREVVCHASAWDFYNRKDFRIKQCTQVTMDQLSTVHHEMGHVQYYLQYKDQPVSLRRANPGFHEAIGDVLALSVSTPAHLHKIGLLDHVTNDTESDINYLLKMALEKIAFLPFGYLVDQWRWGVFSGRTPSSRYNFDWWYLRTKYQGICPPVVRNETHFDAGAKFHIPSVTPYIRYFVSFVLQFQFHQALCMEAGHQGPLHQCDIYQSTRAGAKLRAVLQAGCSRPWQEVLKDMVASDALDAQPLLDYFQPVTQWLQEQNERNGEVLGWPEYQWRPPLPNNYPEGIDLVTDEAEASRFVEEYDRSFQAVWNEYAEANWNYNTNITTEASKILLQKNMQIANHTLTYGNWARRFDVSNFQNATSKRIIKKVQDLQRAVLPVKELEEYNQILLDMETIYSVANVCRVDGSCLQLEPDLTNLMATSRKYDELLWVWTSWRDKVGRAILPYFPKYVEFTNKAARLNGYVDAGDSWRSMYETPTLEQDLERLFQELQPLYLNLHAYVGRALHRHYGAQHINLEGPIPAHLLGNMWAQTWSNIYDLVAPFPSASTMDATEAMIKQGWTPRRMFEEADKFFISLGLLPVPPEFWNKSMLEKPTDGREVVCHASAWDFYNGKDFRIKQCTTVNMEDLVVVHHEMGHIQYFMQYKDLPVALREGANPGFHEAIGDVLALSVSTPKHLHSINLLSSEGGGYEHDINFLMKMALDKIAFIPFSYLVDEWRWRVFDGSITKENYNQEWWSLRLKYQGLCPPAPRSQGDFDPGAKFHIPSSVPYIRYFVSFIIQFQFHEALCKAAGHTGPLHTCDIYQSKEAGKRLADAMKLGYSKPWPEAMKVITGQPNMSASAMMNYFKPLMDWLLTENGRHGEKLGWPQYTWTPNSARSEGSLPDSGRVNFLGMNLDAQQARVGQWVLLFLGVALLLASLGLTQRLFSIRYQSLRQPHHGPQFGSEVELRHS
Assay: Inhibitory activity of angiotensin converting enzyme (rabbit lung acetone powder extract, HHL substrate, modified Cushman method)
Assay type: biochemical
Settings: preincubated 30 minutes, reacted with HHL at 37° C. for 30 minutes; for inhibition at 0.0002 µM: inhibitor concentration 2 × 10^-4 μM; for inhibition at 20 pM: inhibitor concentration 2 × 10^-5 μM
Procedure: The inhibitory activity of angiotensin converting enzyme for the compounds of this invention prepared by above examples was determined as follows;
The inhibitory activity was determined by using a modification of the method of Cushman, et al. [Biochemical Pharmacology, 20, 1637(1971)] Rabbit lung acetone powder was extracted with 10 volumes of 50 mM sodium borate buffer solution(pH 8.3) by homogenization at 4° C. and centrifuged for 40 minutes at 40,000 ×g.
The supernatant which contained angiotensin converting enzyme was used for ACE assay. Hippuryl-L-histidyl-L-leucine(HHL) was used as a substrate of enzymatic reaction and the reaction was determined in 13×100 mm of test tube.
The assay mixture (total volume, 0.25 ml) consisted of 50 mM sodium borate buffer (pH 8.3), 300 mM sodium chloride, and 5 mM HHL(pH 8.3), and they were reacted by addition of 0~10 mU of rabbit lung acetone powder extract for 30 minutes at 37° C.
The volume of enzyme extract was 0.15 ml or below and the reaction solution was preincubated at 37° C. for 30 minutes without the substrate and after adding HHL reacted for 30 minutes, the reaction was terminated by addition of 0.25 ml of 1N-HCl aqueous solution.
In the case of blank assay, hydrochloric acid was added before adding the enzyme extract. Hippuric acid was extracted with 1.5 ml of ethyl acetate which was separated by centrifuging at 3,000 rpm for 10 minutes. 1.0ml of ethyl acetate layer was transferred into the test tube and evaporated at 90° C. for 1 hour on temp-block.
Hippuric acid was dissolved in 1.0 ml of 50 mM sodium borate buffer (pH 8.3) and qualified from its absorbance at 228 nm. The final concentration of inhibitor was adjusted to 2×10^-4, 2×10^-5 μM with sodium borate buffer solution(pH 8.3) and reaction solution without the substrate was preincubated for 30 minutes and after adding the substrate, it was reacted at 37° C. for 30 minutes and terminated with 1N-HCl.
The synthesized inhibitors with non-water soluble property were dissolved by ultrasonic treatment.

SMILES | inhibition at 0.0002 µM | inhibition at 20 pM
CCCCCCCCCCCCCCCCCCSCC(COP(=O)(O)SC[C@@H](C)C(=O)N1CCC[C@H]1C(=O)O)OC(C)=O (mixture of isomers) [Compound 8, rac-1-S-octadecyl-2-O-acetyl-thioglyceryl-3-phosphoryl captopril] | 90% | 80%
CCCCCCCCCCCCCCCCCCOCC(COP(=O)(O)SC[C@@H](C)C(=O)N1CCC[C@H]1C(=O)OCc1ccc([N+](=O)[O-])cc1)OC(C)=O (mixture of isomers) [Compound 3, rac-1-O-octadecyl-2-O-acetyl-glyceryl-3-phosphoryl captopril-p-nitrobenzyl ester] | 85% | 60%
CCCCCCCCCCCCCCCCCCOCC(COP(=O)(O)SC[C@@H](C)C(=O)N1CCC[C@H]1C(=O)O)OC(C)=O (mixture of isomers) [Compound 4, rac-1-O-octadecyl-2-O-acetyl-glyceryl-3-phosphoryl captopril] | 98% | 98%
CCCCCCCCCCCCCCCCCCSCC(COP(=O)(O)SC[C@@H](C)C(=O)N1CCC[C@H]1C(=O)O)OC(=O)CCCCCCCCCCCCCCC (mixture of isomers) [Compound 6, rac-1-S-octadecyl-2-O-palmitoyl-thioglyceryl-3-phosphoryl captopril] | 92% | 70%
CCCCCCCCCCCCCCCCCCOCC(COP(=O)(O)SC[C@@H](C)C(=O)N1CCC[C@H]1C(=O)OCc1ccc([N+](=O)[O-])cc1)OC(=O)CCCCCCCCCCCCCCC (mixture of isomers) [Compound 1, rac-1-O-octadecyl-2-O-palmitoyl-glyceryl-3-phosphorylcaptopril-p-nitrobenzyl ester] | 77% | 39%
CCCCCCCCCCCCCCCCCCSCC(COP(=O)(O)SC[C@@H](C)C(=O)N1CCC[C@H]1C(=O)OCc1ccc([N+](=O)[O-])cc1)OC(C)=O (mixture of isomers) [Compound 7, rac-1-S-octadecyl-2-O-acetyl-thioglyceryl-3-phosphoryl captopril-p-nitrobenzyl ester] | 78% | 43%
CCCCCCCCCCCCCCCCCCSCC(COP(=O)(O)SC[C@@H](C)C(=O)N1CCC[C@H]1C(=O)OCc1ccc([N+](=O)[O-])cc1)OC(=O)CCCCCCCCCCCCCCC (mixture of isomers) [Compound 5, rac-1-S-octadecyl-2-O-palmitoyl-thioglyceryl-3-phosphoryl captopril-p-nitrobenzyl ester] | 31% | 4%
CCCCCCCCCCCCCCCCCCOCC(COP(=O)(O)SC[C@@H](C)C(=O)N1CCC[C@H]1C(=O)O)OC(=O)CCCCCCCCCCCCCCC (mixture of isomers) [Compound 2, rac-1-O-octadecyl-2-O-palmitoyl-glyceryl-3-phosphoryl captopril] | 97% | 80%

From US5358961A, “Pyrrolidine derivatives” (Jin Ro Limited, priority 1991, dated 1994)
